Data published in US20220073475A1, “5-MEMBERED HETEROARYL COMPOUNDS CONTAINING A HYDROXAMATE MOIETY AND THEIR USE” (UNIVERSITE DE LILLE, priority 2019, published 2022).

Test system: OPM2 cells
Assay: CFZ potency increase, ratio of CC50 of CFZ alone / with compound
Type: cell-based, human
Conditions: OPM2, compound at 7.5 μM (Table 5)
Excerpt: Human multiple myeloma cells OPM2 (ACC 50, DSMZ) are maintained at 0.3-0.7 10^6 cells/mL in RPMI1640 medium supplemented with GlutaMAX™, 10% fetal bovine serum and 1% penicillin-streptomycin.
We developed a cell-based, high content assay allowing the rapid detection and quantification of apoptotic cells. Caspase-3/7 activity was detected in real-time using the NucView™ 488 Caspase-3 substrate (Biotium), where the caspase-3/7 substrate peptide sequence DEVD is attached to a nucleic acid dye. The NucView™ 488 reagent crosses the plasma membrane to enter the cytoplasm, where the dye is unable to bind to DNA and remains non-fluorescent. Once the substrate has been cleaved by activated caspase-3/7 in apoptotic cells, the high-affinity DNA dye is released and migrates to the cell nucleus to stain the nucleus with a bright green fluorescence. All cell nuclei were also labeled with Hoechst 33342 (Ozyme).
For OPM2, briefly, nanoliters of compound and cytotoxic agent in DMSO stock solutions were first transferred and combined in 384-microtiter well plate using an Echo555 liquid handler (Labcyte). The exact volume of each solution to be transferred was calculated to achieve subsequently the target concentration in the 70 μL volume incubate. Final DMSO content was maintained at 0.2%. Then, 70 μL of cells treated with 1 μM NucView™ 488 and 20 ng/mL Hoechst 33342 were distributed to the plates to obtain a final density of 12,000 cells per well. The microplates were incubated at 37° C. and 5% CO2 in an automated LiCONiC STR240 UB cell incubator, and images were acquired at various times at 405 nm and 488 nm with the high-resolution automated confocal microscope INCell 6000 (GE). Four fields per well were read with the 20× objective in a confocal mode. The BioCel workstation was managed by VWorks automation control software
For all cells, Columbus software (Perkin) was used for image quantification and analysis. First, Hoechst 33342 staining was used for an automated detection of nuclei, in which the mean fluorescence intensity for NucView™ 488 was quantified. Inspection of control cells at initial time was used to set a threshold level of NucView™ 488 fluorescence to separate non apoptotic cells from apoptotic cells. Finally, for each well, the result was expressed as percentage of apoptotic cells in the total cell population. CC50 values were calculated from concentration-response curves by a nonlinear regression analysis at four parameters using Excel Fit or GraphPad Prim softwares.
Activity=(% of apoptotic cells with cytotoxic agent in combination with compound of the invention)/(% of apoptotic cells with cytotoxic agent alone). • Ratio of CC50: The CC50 of the cytotoxic agent was calculated in absence and in presence of a compound of the invention.
Activity=(CC50 of agent alone)/(CC50 of agent with compound). • Ratio of AUC. Activity=(Area of the dose-concentration curve of cytotoxic agent combined with one concentration of compound)/(Area of the dose-concentration curve of cytotoxic agent alone). (Lehar J. et al, 2008 (molecular systems biology 4:215)).

Row | Structure (SMILES) | Activity: ratio (CC50 of CFZ alone)/(CC50 of CFZ in combination with compound of the invention)
1 | O=C(C[C@@H](Cc1ccc2ccccc2c1)n1nncc1CNC(=O)CCc1ccccc1)NO [Compound 25, (R)—N-hydroxy-4-naphthalen-2-yl-3-{5-[(3-phenyl-propionylamino)-methyl]-[1,2,3]-triazol-1-yl}-butyramide] | 1.4
2 | O=C(C[C@@H](Cc1csc2ccccc12)n1cc(CNC(=O)c2ccc(F)c(F)c2)nn1)NO [Compound 179, (R)—N-((1-(1-(benzo[b]thiophen-3-yl)-4-(hydroxyamino)-4-oxobutan-2-yl)-1H-1,2,3-triazol-4-yl)methyl)-3,4-difluorobenzamide] | 1.6
3 | O=C(C[C@@H](Cc1c[nH]c2ccccc12)n1cc(C2COCCN2C(=O)c2ccc(F)c(F)c2)nn1)NO (stereo partly drawn) [Compound 90, (3R)-3-[4-[4-(3,4-difluorobenzoyl)morpholin-3-yl]triazol-1-yl]-4-(1H-indol-3-yl)butanehydroxamic acid] | 1.4
4 | O=C(C[C@@H](Cc1c[nH]c2ccccc12)n1cc(C(Cc2ccc(O)cc2)NC(=O)c2ccc(F)c(F)c2)nn1)NO (stereo partly drawn) [Compound 146, 3,4-Difluoro-N-[1-[1-[(1R)-3-(hydroxyamino)-1-(1H-indol-3-ylmethyl)-3-oxo-propyl]triazol-4-yl]-2-(4-hydroxyphenyl)ethyl]benzamide] | 1.4
5 | O=C(C[C@@H](Cc1ccc2ncsc2c1)n1cc(CNC(=O)c2ccc(F)c(F)c2)nn1)NO [Compound 178, (R)—N-((1-(1-(benzo[d]thiazol-6-yl)-4-(hydroxyamino)-4-oxobutan-2-yl)-1H-1,2,3-triazol-4-yl)methyl)-3,4-difluorobenzamide] | 1.3
6 | O=C(C[C@@H](Cc1ccc2ccccc2c1)n1cc([C@H](CO)NC(=O)c2ccc(F)c(F)c2)nn1)NO [Compound 96, 3,4-difluoro-N-[(1R)-2-hydroxy-1-[1-[(1R)-3-(hydroxyamino)-1-(2-naphthylmethyl)-3-oxo-propyl]triazol-4-yl]ethyl]benzamide] | 1.4
7 | O=C(C[C@@H](Cc1ccc2ccccc2c1)n1cc(CNC(=O)c2cccc(F)c2)nn1)NO [Compound 184, (R)-3-fluoro-N-((1-(4-(hydroxyamino)-1-(naphthalen-2-yl)-4-oxobutan-2-yl)-1H-1,2,3-triazol-4-yl)methyl)benzamide] | 2.4
8 | O=C(C[C@@H](Cc1ccc2cc[nH]c2c1)n1cc(CNC(=O)c2ccc(F)cc2)nn1)NO [Compound 176, (R)-4-fluoro-N-((1-(4-(hydroxyamino)-1-(1H-indol-6-yl)-4-oxobutan-2-yl)-1H-1,2,3-triazol-4-yl)methyl)benzamide] | 1.3
9 | CC(NC(=O)c1ccc(F)cc1)c1cn([C@@H](CC(=O)NO)Cc2ccc3ccccc3c2)nn1 (stereo partly drawn) [Compound 164, 4-fluoro-N-(1-(1-((R)-4-(hydroxyamino)-1-(naphthalen-2-yl)-4-oxobutan-2-yl)-1H-1,2,3-triazol-4-yl)ethyl)benzamide] | 2.0
10 | O=C(C[C@@H](Cc1csc2ccccc12)n1cc(CNC(=O)c2ccc(F)cc2)nn1)NO [Compound 180, (R)—N-((1-(1-(benzo[b]thiophen-3-yl)-4-(hydroxyamino)-4-oxobutan-2-yl)-1H-1,2,3-triazol-4-yl)methyl)-4-fluorobenzamide] | 1.8
11 | O=C(C[C@@H](Cc1ccc2ccccc2c1)n1cc(CCNC(=O)c2ccc(F)c(F)c2)nn1)NO [Compound 57, 3,4-difluoro-N-[2-[1-[(1R)-3-(hydroxyamino)-1-(2-naphthylmethyl)-3-oxo-propyl]triazol-4-yl]ethyl]benzamide] | 1.7
